From ChEMBL document CHEMBL3774305, “Design, synthesis, and biological evaluation of arylpiperazine-benzylpiperidines with dual serotonin and norepinephrine reuptake inhibitory activities” (Bioorg Med Chem, 2016)

How the values were obtained:
Type in all cases: cell-based
[1] = target: T1, Sodium-dependent noradrenaline transporter (Homo sapiens, UniProt P23975); test: Inhibition of [3H]-NE reuptake in human NET transfected into HEK293 cells at 1 uM by liquid scintillation counting method relative to […]
[2] = target: T2, Sodium-dependent serotonin transporter (Homo sapiens, UniProt P31645); test: Inhibition of [3H]-5-HT reuptake in human SERT transfected into HEK293 cells at 1 uM by liquid scintillation counting method relative to venlafaxine HCl
Target sequence in this assay (P31645 whole entry, looked up): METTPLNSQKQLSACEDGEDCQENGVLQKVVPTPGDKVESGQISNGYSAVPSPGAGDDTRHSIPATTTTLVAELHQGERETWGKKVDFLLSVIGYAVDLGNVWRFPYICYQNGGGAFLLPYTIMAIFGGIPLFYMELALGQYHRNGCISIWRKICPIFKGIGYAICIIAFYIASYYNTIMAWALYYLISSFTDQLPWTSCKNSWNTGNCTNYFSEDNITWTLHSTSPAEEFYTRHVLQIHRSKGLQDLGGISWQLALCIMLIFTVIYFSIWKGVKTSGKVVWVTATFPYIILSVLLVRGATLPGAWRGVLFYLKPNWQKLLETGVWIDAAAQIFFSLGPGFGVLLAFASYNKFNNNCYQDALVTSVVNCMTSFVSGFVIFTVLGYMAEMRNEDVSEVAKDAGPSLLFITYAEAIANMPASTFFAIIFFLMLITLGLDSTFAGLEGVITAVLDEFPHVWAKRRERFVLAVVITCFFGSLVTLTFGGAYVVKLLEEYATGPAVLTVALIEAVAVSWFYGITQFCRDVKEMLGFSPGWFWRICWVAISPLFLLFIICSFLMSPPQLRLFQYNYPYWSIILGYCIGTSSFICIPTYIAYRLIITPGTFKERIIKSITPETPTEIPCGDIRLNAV

[3] = target: T2, Sodium-dependent serotonin transporter; test: Inhibition of [3H]-5-HT reuptake in human SERT transfected into HEK293 cells by liquid scintillation counting method
Target sequence in this assay (P31645 whole entry): as the sequence (P31645 whole entry, looked up) above

[4] = target: T1, Sodium-dependent noradrenaline transporter; test: Inhibition of [3H]-NE reuptake in human NET transfected into HEK293 cells at 10 uM by liquid scintillation counting method relative to venlafaxine HCl
[5] = target: T1, Sodium-dependent noradrenaline transporter; test: Inhibition of [3H]-NE reuptake in human NET transfected into HEK293 cells by liquid scintillation counting method

T1 sequence (P23975 whole entry): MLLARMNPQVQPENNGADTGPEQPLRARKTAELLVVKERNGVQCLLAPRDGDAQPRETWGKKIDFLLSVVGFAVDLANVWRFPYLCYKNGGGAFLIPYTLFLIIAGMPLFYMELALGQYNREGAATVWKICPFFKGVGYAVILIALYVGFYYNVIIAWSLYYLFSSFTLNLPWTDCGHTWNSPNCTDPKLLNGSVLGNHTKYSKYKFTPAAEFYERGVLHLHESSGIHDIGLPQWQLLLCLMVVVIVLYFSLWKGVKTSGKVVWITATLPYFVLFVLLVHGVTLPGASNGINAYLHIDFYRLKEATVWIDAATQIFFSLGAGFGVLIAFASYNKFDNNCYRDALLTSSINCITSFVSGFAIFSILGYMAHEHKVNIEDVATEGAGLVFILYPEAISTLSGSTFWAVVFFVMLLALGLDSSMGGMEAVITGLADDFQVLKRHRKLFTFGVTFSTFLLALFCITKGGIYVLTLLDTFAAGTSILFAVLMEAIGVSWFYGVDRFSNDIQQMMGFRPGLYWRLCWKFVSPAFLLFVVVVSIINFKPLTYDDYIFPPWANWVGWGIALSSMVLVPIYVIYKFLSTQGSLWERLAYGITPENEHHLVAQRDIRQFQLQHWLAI

| fold change (FC) [1] | fold change (FC) [2] | IC50 [3] | fold change (FC) [4] | IC50 [5] | Structure (SMILES) |
| --- | --- | --- | --- | --- | --- |
| 0.41 | 0.64 | – | – | – | Clc1cccc(N2CCN(CCN3CCC(Cc4ccccc4)CC3)CC2)c1Cl |
| – | 0.85 | 4.32 µM | 1.29 | 2.5 µM | Clc1ccc(N2CCN(CCN3CCC(Cc4ccccc4)CC3)CC2)c(Cl)c1 |
| – | 2.4 | 1.76 µM | 1.36 | 0.89 µM | COc1ccccc1N1CCN(CCCN2CCC(Cc3ccccc3)CC2)CC1 |
| – | 0.41 | – | 1.29 | – | Clc1cccc(N2CCN(CCN3CCC(Cc4ccccc4)CC3)CC2)c1 |
| 0.08 | 0.31 | – | – | – | c1ccc(CC2CCN(CCN3CCN(c4ccccn4)CC3)CC2)cc1 |
| – | 0.08 | – | 1.01 | – | c1ccc(CC2CCN(CCCN3CCN(c4ncccn4)CC3)CC2)cc1 |
| – | 0.56 | – | 1.18 | – | Clc1ccc(N2CCN(CCN3CCC(Cc4ccccc4)CC3)CC2)cc1 |
| – | 1.01 | 4.92 µM | 1.31 | 2.1 µM | Brc1ccc(N2CCN(CCN3CCC(Cc4ccccc4)CC3)CC2)cc1 |
| 0.2 | 0.27 | – | – | – | COc1ccccc1N1CCN(CCN2CCC(Cc3ccccc3)CC2)CC1 |
| – | 0.76 | 2.61 µM | 1.34 | 1.17 µM | FC(F)(F)c1ccc(N2CCN(CCCN3CCC(Cc4ccccc4)CC3)CC2)cc1 |
| – | 0.87 | 2.25 µM | 1.6 | 0.61 µM | Brc1ccc(N2CCN(CCCN3CCC(Cc4ccccc4)CC3)CC2)cc1 |
| -0.05 | 0.33 | – | – | – | c1ccc(CC2CCN(CCN3CCN(c4ncccn4)CC3)CC2)cc1 |
| – | 0.93 | – | 1.26 | – | Cc1cccc(C)c1N1CCN(CCN2CCC(Cc3ccccc3)CC2)CC1 |
| – | 0.44 | 2.03 µM | 1.46 | 0.53 µM | Clc1ccc(N2CCN(CCCN3CCC(Cc4ccccc4)CC3)CC2)cc1 |
| – | 0.69 | – | 1.26 | – | FC(F)(F)c1ccc(N2CCN(CCN3CCC(Cc4ccccc4)CC3)CC2)cc1 |
| – | 2.83 | 2 µM | 1.37 | 1.07 µM | Cc1cccc(C)c1N1CCN(CCCN2CCC(Cc3ccccc3)CC2)CC1 |
| – | 0.32 | – | 1.23 | – | c1ccc(CC2CCN(CCCN3CCN(c4ccccn4)CC3)CC2)cc1 |
| – | 0.79 | 2.51 µM | 1.63 | 0.56 µM | Clc1cccc(N2CCN(CCCN3CCC(Cc4ccccc4)CC3)CC2)c1Cl |
| – | 0.41 | – | 1.16 | – | Fc1ccc(N2CCN(CCN3CCC(Cc4ccccc4)CC3)CC2)cc1 |
| – | 1.06 | 1.46 µM | 1.45 | 0.76 µM | Clc1ccc(N2CCN(CCCN3CCC(Cc4ccccc4)CC3)CC2)c(Cl)c1 |
| – | 0.89 | – | 1 | – | c1ccc(CC2CCN(CCN3CCN(c4ccccc4)CC3)CC2)cc1 |
| – | 0.27 | – | 1.4 | – | Fc1ccc(N2CCN(CCCN3CCC(Cc4ccccc4)CC3)CC2)cc1 |

| Structure (SMILES) | fold change (FC) [1] | fold change (FC) [2] | IC50 [3] | fold change (FC) [4] | IC50 [5] |
| --- | --- | --- | --- | --- | --- |
| Clc1cccc(N2CCN(CCCN3CCC(Cc4ccccc4)CC3)CC2)c1 | – | 0.69 | 1.18 µM | 1.41 | 0.38 µM |
| c1ccc(CC2CCN(CCCN3CCN(c4ccccc4)CC3)CC2)cc1 | – | 0.58 | 1.36 µM | 1.51 | 0.6 µM |
